Reference: US6372297B1, “Wood preservative oxathiazines” (Uniroyal Chemical Company, Inc., priority 1993, dated 2002)

Columns and labels:
[1] = tested on: Aspergillus niger; experiment: Control of molds and blue stain fungi in stick test (beech sticks); conditions: minimum concentration producing a score less than or equal to 1; dosages 250-5000 ppm
Protocol: (§1) The compounds shown in Table 1 were dissolved in 50% ethanol and a dilution series was made using the same solvent. In 25 ml of each dilution, one oven-dried beech stick (73×18×2 mm) was drenched until saturated.
(§2) Test dosages were 50, 100, 250, 500, and 1000 ppm for blue stain fungi which were Aureobasidium pullulans and Sclerophoma pithyophila. Test dosages for the molds used (Trichoderma viride, Aspergillus niger) were 250, 500, 1000, 2500, and 5000 ppm.
(§3) After three hours the test solution was poured off and each stick was allowed to dry in a sterile laminar air flow. In each Petri dish one stick was placed on malt agar previously seeded with inoculum. Two drops of fungal or spore suspension were pipetted on the upper surface of the stick. The Petri dishes were then incubated at 22° C. and 90% relative humidity. The treated sticks were evaluated after sufficient growth of the fungus on the untreated control sticks. The following score system was used to rate the effectiveness of the compounds:
(§4) 0=stick free of fungal growth
(§5) 1=traces of fungal growth on stick
(§6) 2=slight fungal growth (5 to 25% of the surface covered)
(§7) 3=moderate fungal growth (25 to 50% of the surface covered)
(§8) 4=vigorous fungal growth (greater than 50% of the surface covered).
(§9) For purposes of comparison of these compounds, these values were converted to threshold ranges. The threshold value in this system is defined as the minimum concentration of a particular compound which produces a score less than or equal to 1.

[2] = tested on: Aureobasidium pullulans; experiment: as above; conditions: minimum concentration producing a score less than or equal to 1; dosages 50-1000 ppm
Protocol: as §1, §2, §3, §4, §5, §6, §7, §8, §9

[3] = tested on: Sclerophoma pithyophila; experiment: as above; conditions: minimum concentration producing a score less than or equal to 1; dosages 50-1000 ppm
Protocol: as §1, §2, §3, §4, §5, §6, §7, §8, §9

[4] = tested on: Trichoderma viride; experiment: as above; conditions: minimum concentration producing a score less than or equal to 1; dosages 250-5000 ppm
Protocol: as §1, §2, §3, §4, §5, §6, §7, §8, §9

[5] = tested on: Coniophora puteana; experiment: Activity against wood-rotting fungi, weight loss of impregnated wood blocks; conditions: eight weeks at 22° C. and 70% relative humidity
Protocol: (§10) Sapwood blocks (50×20×6 mm) of Scots pine (Pinus sylvestris) and beech (Fagus sylvatica) were oven-dried at 104° C. The blocks were cooled, weighed, and impregnated with the test compound, by a vacuum treatment. Each concentration of the test compounds was applied to 7 replicates. By reweighing after each treatment, the uptake of active ingredient was calculated. Badly treated wood was discarded. For fixation of the active compound, the treated blocks were kept in a closed container for two weeks. The container was opened and the wood was dried for two more weeks. The test blocks were sterilized by gamma-irradiation (1.2 Mrad). Each treated block was placed on a mesh in an inoculated Petri dishes of malt agar, with an untreated (control) block. All the blocks were exposed to fungal attack for eight weeks at 22° C. and 70% relative humidity. At the end of the incubation period, the blocks were freed from adhering mycelium, oven dried at 104° C., allowed to cool, and weighed. The percentage weight loss of each block was calculated. Invalid results, due to waterlogging or insufficient moisture content, were not taken into account. The average weight loss of the treated blocks compared to the control blocks appears in Table 8.

[6] = tested on: Coriolus versicolor; experiment: as above; conditions: eight weeks at 22° C. and 70% relative humidity
Protocol: as §10

[7] = tested on: blue-stain fungi and molds; experiment: Activity against blue-stain fungi and molds on a stick test on vermiculite (paint film); parameters: key to Surface score of wooden sticks treated with paint formulation, C. cladosporioides / Surface score of wooden sticks treated with paint formulation, P. purpurogenum / Surface score of wooden sticks treated with paint formulation, P. violacea / Surface score of wooden sticks treated with paint formulation, R rubra (y) / Surface score of wooden sticks treated with paint formulation, S. chartarum / Surface score of wooden sticks treated with paint formulation, A. versicolor / Surface score of wooden sticks treated with paint formulation, A. pullulans: 0: No growth; Trace of growth of up to 1% coverage of the test inoculated area; 2: Growth covering between 1 and 10% of the inoculated test area; Growth covering between 10 and 30% of the inoculated test area; 4: Growth covering between 30 and 70% of the inoculated test area; 5: Growth covering more than 70t of the inoculated test area; conditions: 12 weeks on vermiculite; for Surface score of wooden sticks treated with paint formulation, R rubra (y): R rubra (yeast)
Method in brief: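 Painted, γ-sterilised beech sticks dipped in spore suspensions of each fungus, then held on moist vermiculite for 12 weeks. Surface fungal growth scored visually on a 0 (none) to 5 (over 70% of inoculated area) scale.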

[8] = tested on: mixed spore suspension: Aureobasidium pullulans, Aspergillus amstelodami, Ceratocystis pilifera, Cladosporium sp., Penicillium sp., Sclerophomas entoxylina …; experiment: Control of molds and sapstain fungi in mini-board test; parameters: key to Surface score of treated mini-boards, 3 week incubation, 1500 ppm / Surface score of treated mini-boards, 3 week incubation, 2500 ppm: 0: Free of fungal growth; 1: Traces of fungal growth; 2: Little fungal growth; 3: Moderate fungal growth; 4: Vigorous to maximum growth (all surfaces covered with fungal growth)
[9] = higher treatment level, uptake 1271-1534 g.a.i./m3, control blocks lost 20-37%
[10] = lower treatment level, uptake 526-582 g.a.i./m3, control blocks lost 17-42%
[11] = higher treatment level, uptake 1136-1222 g.a.i./m3, control blocks lost 26-44%
[12] = lower treatment level, uptake 450-496 g.a.i./m3, control blocks lost 29-38%

Structure (SMILES) | Threshold value in stick test, A[…] [1] | Threshold value in stick test, AUREOBASIDIUM PULLULANS [2] | Threshold value in stick test, SCLEROPHOMA PYTHIOPHILA [3] | Threshold value in stick test, TRICHODERMA VIRIDE [4] | % weight loss, treated blocks (Coniophora) [5, 9] | % weight loss, treated blocks (Coniophora) [5, 10] | % weight loss, treated blocks (Coriolus) [6, 11] | % weight loss, treated blocks (Coriolus) [6, 12] | Surface score of wooden sticks treated with paint formulation, A. pullulans ([7]; 0.15% a.i. in paint) | Surface score of wooden sticks treated with paint formulation, A. pullulans ([7]; 0.3% a.i. in paint) | Surface score of wooden sticks treated with paint formulation, A. versicolor ([7]; 0.15% a.i. in paint) | Surface score of wooden sticks treated with paint formulation, A. versicolor ([7]; 0.3% a.i. in paint) | Surface score of wooden sticks treated with paint formulation, C. cladosporioides ([7]; 0.15% a.i. in paint) | Surface score of wooden sticks treated with paint formulation, C. cladosporioides ([7]; 0.3% a.i. in paint) | Surface score of wooden sticks treated with paint formulation, P. purpurogenum ([7]; 0.15% a.i. in paint) | Surface score of wooden sticks treated with paint formulation, P. purpurogenum ([7]; 0.3% a.i. in paint) | Surface score of wooden sticks treated with paint formulation, P. violacea ([7]; 0.15% a.i. in paint) | Surface score of wooden sticks treated with paint formulation, P. violacea ([7]; 0.3% a.i. in paint) | Surface score of wooden sticks treated with paint formulation, R rubra (y) ([7]; 0.15% a.i. in paint) | Surface score of wooden sticks treated with paint formulation, R rubra (y) ([7]; 0.3% a.i. in paint) | other results
C[S+]1CCON=C1c1ccc(Cl)cc1 (stereo not shown) [Compound 1] | 1000-2500 ppm | >1000 ppm | 100-250 ppm | 2500-5000 ppm |  |  |  |  |  |  |  |  |  |  |  |  |  |  |  |  | 
C[S+]1CCON=C1c1cc(Cl)cc(Cl)c1 (stereo not shown) [Compound 19] | 250-500 ppm | 250-500 ppm | 250-500 ppm | <250 ppm | −0.3% | 0.9% | 87% | 35% |  |  |  |  |  |  |  |  |  |  |  |  | 
[O-][S+]1CCON=C1c1cccs1 (stereo not shown) [Compound 8] | 250-500 ppm | 250-500 ppm | 50-100 ppm | 500-1000 ppm | 0.7% | 0.9% | 3.5% | 24% | 0 | 0 | 0 | 0 | 0 | 0 | 0 | 0 | 4 (Growth covering between 30 and 70% of the inoculated test area) | 0 | 1 (Trace of growth of up to 1% coverage of the test inoculated area) | 1 (Trace of growth of up to 1% coverage of the test inoculated area) | Surface score of wooden sticks treated with paint formulation, S. chartarum ([7]; 0.15% a.i. in paint): 0; Surface score of wooden sticks treated with paint formulation, S. chartarum ([7]; 0.3% a.i. in paint): 0; Surface score of wooden sticks treated with paint formulation, U. atrum ([7]; 0.15% a.i. in paint): 1 (Trace of growth of up to 1% coverage of the test inoculated area); Surface score of wooden sticks treated with paint formulation, U. atrum ([7]; 0.3% a.i. in paint): 1 (Trace of growth of up to 1% coverage of the test inoculated area); Surface score of treated mini-boards, 3 week incubation, 1500 ppm [8]: 0; Surface score of treated mini-boards, 6 week incubation, 1500 ppm [8]: 0.8; Surface score of treated mini-boards, 3 week incubation, 2500 ppm [8]: 0; Surface score of treated mini-boards, 6 week incubation, 2500 ppm [8]: 0.4
C[S+]1CCON=C1c1ccc(C(F)(F)F)cc1 (stereo not shown) [Compound 25] | <250 ppm | 250-500 ppm | 50-100 ppm | <250 ppm | −0.8% | −0.7% | 21% | 37% |  |  |  |  |  |  |  |  |  |  |  |  | 
O=S1(=O)CCON=C1c1cccs1 [Compound 34] |  |  |  |  |  |  |  |  | 0 | 0 | 0 | 0 | 0 | 0 | 4 (Growth covering between 30 and 70% of the inoculated test area) | 1 (Trace of growth of up to 1% coverage of the test inoculated area) | 4 (Growth covering between 30 and 70% of the inoculated test area) | 1 (Trace of growth of up to 1% coverage of the test inoculated area) | 3 (Growth covering between 10 and 30% of the inoculated test area) | 0 | Surface score of wooden sticks treated with paint formulation, S. chartarum ([7]; 0.15% a.i. in paint): 1 (Trace of growth of up to 1% coverage of the test inoculated area); Surface score of wooden sticks treated with paint formulation, S. chartarum ([7]; 0.3% a.i. in paint): 0; Surface score of wooden sticks treated with paint formulation, U. atrum ([7]; 0.15% a.i. in paint): 3 (Growth covering between 10 and 30% of the inoculated test area); Surface score of wooden sticks treated with paint formulation, U. atrum ([7]; 0.3% a.i. in paint): 1 (Trace of growth of up to 1% coverage of the test inoculated area); Surface score of treated mini-boards, 3 week incubation, 1500 ppm [8]: 0; Surface score of treated mini-boards, 6 week incubation, 1500 ppm [8]: 2.4; Surface score of treated mini-boards, 3 week incubation, 2500 ppm [8]: 0; Surface score of treated mini-boards, 6 week incubation, 2500 ppm [8]: 2.4
[O-][S+]1CCON=C1c1ccc(Cl)c(Cl)c1 (stereo not shown) [Compound 4] | 250-500 ppm | 500-1000 ppm | 50-100 ppm | 500-1000 ppm | 0.3% | 0.3% | 35% | 35% |  |  |  |  |  |  |  |  |  |  |  |  | 
